Experimental data: US8178535B2, “Substituted sulfonamide compounds having bradykinin 1 receptor activity and use thereof as medicaments” (Gruenenthal GmbH, priority 2008, dated 2012)

Tests used:
[1] = target: T1, human B1R receptor (hB1R) (Homo sapiens, UniProt P46663); assay: FLIPR Ca2+ assay (Fluo-4) on CHO K1 cells stably transfected with the human B1R gene; type: cell-based; conditions: CHO-K1; test substance 10 μM; agonist Lys-Des-Arg9-bradykinin 0.5 nM; % inhibition compared to the maximum achievable inhibition
T1 construct: host or cells: CHO K1 cells
T1 sequence (P46663 1-353): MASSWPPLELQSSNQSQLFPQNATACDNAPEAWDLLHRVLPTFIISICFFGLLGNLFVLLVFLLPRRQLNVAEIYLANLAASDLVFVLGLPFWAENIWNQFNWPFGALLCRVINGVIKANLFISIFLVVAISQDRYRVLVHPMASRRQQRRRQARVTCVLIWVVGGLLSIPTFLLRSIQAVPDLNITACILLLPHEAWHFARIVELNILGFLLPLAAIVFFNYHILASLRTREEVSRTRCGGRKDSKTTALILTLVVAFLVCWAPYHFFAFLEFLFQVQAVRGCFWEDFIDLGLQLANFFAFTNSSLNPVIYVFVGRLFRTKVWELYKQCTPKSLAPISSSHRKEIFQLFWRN
How it was run: (§1)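 CHO K1 cells stably expressing human or rat B1R, Fluo-4 loaded, read by FLIPR (Ex 488/Em 540, peak fluorescence). Compound at 10 μM gives % activation vs agonist. After 10 min, agonist added (human: Lys-Des-Arg9-bradykinin 0.5 nM; rat: Des-Arg9-bradykinin 100 nM); % inhibition relative to maximal achievable inhibition.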

[2] = target: T2, B1R receptor of rats (rB1R) (Rattus norvegicus, UniProt P97583); assay: FLIPR Ca2+ assay (Fluo-4) on CHO K1 cells stably transfected with the B1R gene of rats; type: cell-based; conditions: CHO-K1; test substance 10 μM; agonist Des-Arg9-bradykinin 100 nM; % inhibition compared to the maximum achievable inhibition
T2 construct: host or cells: CHO K1 cells
T2 sequence (P97583 1-337): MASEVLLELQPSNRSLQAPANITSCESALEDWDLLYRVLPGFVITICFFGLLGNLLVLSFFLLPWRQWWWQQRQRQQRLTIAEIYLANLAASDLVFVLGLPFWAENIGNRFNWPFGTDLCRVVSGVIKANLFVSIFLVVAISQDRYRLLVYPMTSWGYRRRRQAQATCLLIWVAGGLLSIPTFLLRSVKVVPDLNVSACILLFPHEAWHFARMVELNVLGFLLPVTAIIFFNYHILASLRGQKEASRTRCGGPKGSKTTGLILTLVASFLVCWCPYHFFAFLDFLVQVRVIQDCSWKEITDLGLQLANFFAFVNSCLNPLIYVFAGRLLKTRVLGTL
How it was run: as §1

Row | SMILES | inhibition at 10 µM [1] [%] | inhibition at 10 µM [2] [%]
1 | Cc1cc(C)c(S(=O)(=O)N2CCCCC2COCC(=O)N2CCn3cccc3C2C(C)C)c(C)c1 (stereo not shown) [(57), 1-(1-isopropyl-3,4-dihydropyrrolo[1,2-a]pyrazin-2(1H)-yl)-2-((1-(mesitylsulfonyl)piperidin-2-yl)methoxy)ethanone] | 102 | 103
2 | CCCCC1c2ccc(CN(C)C)n2CCN1C(=O)COCC1CCCCN1S(=O)(=O)c1c(C)cc(OC)cc1C (stereo not shown) [(67), 1-(1-butyl-6-((dimethylamino)methyl)-3,4-dihydropyrrolo[1,2-a]pyrazin-2(1H)-yl)-2-((1-(4-methoxy-2,6-dimethylphenylsulfonyl)piperidin-2-yl)methoxy)ethanone] | 102 | 100
3 | O=C(CC1CCCCN1S(=O)(=O)c1cccc(C(F)(F)F)c1)N1CCn2cc(-c3ccncc3)nc2C1 (stereo not shown) [(104), 1-(2-(Pyridin-4-yl)-5,6-dihydroimidazo[1,2-a]pyrazin-7(8H)-yl)-2-(1-(3-(trifluoromethyl)phenylsulfonyl)piperidin-2-yl)ethanone] | 43 | 49
4 | COc1cc(C)c(S(=O)(=O)N2CCCCC2COCC(=O)N2CCn3cccc3C2c2ccc(C)c(C)c2)c(C)c1 (stereo not shown) [(27), 1-(1-(3,4-dimethylphenyl)-3,4-dihydropyrrolo[1,2-a]pyrazin-2(1H)-yl)-2-((1-(4-methoxy-2,6-dimethylphenylsulfonyl)piperidin-2-yl)methoxy)ethanone] | 66 | 97
5 | Cc1cc(C)c(S(=O)(=O)N2CCCCC2COCC(=O)N2CCn3cccc3C2c2ccc(F)c(F)c2)c(C)c1 (stereo not shown) [(40), 1-(1-(3,4-difluorophenyl)-3,4-dihydropyrrolo[1,2-a]pyrazin-2(1H)-yl)-2-((1-(mesitylsulfonyl)piperidin-2-yl)methoxy)ethanone] | 38 | 100
6 | O=C(CC1CCCCN1S(=O)(=O)c1cccc(C(F)(F)F)c1)N1CCn2c(Cc3ccncc3)ccc2C1 (stereo not shown) [(90), 1-(6-(Pyridin-4-ylmethyl)-3,4-dihydropyrrolo[1,2-a]pyrazin-2(1H)-yl)-2-(1-(3-(trifluoromethyl)phenylsulfonyl)piperidin-2-yl)ethanone] | 25 | 47
7 | Cc1cc(C)c(S(=O)(=O)N2CCCCC2COCC(=O)N2CCn3cccc3C2C(C)(C)C)c(C)c1 (stereo not shown) [(33), 1-(1-tert-butyl-3,4-dihydropyrrolo[1,2-a]pyrazin-2(1H)-yl)-2-((1-(mesitylsulfonyl)piperidin-2-yl)methoxy)ethanone] | 98 | 100
8 | COc1cc(C)c(S(=O)(=O)N2CCCCC2CCCC(=O)N2CCn3c(CCc4ccncc4)ccc3C2)c(C)c1 (stereo not shown) [(109), 4-(1-(4-Methoxy-2,6-dimethylphenylsulfonyl)piperidin-2-yl)-1-(6-(2-(pyridin-4-yl)ethyl)-3,4-dihydropyrrolo[1,2-a]pyrazin-2(1H)-yl)butan-1-one] | 95 | 99
9 | O=C(CC1CCCCN1S(=O)(=O)c1cccc(C(F)(F)F)c1)N1CCn2c(Cc3cccnc3)ccc2C1 (stereo not shown) [(97), 1-(6-(Pyridin-3-ylmethyl)-3,4-dihydropyrrolo[1,2-a]pyrazin-2(1H)-yl)-2-(1-(3-(trifluoromethyl)phenylsulfonyl)piperidin-2-yl)ethanone] | 80 | 103
10 | COc1cc(C)c(S(=O)(=O)N2CCCCC2COCC(=O)N2CCn3c(CCc4cccnc4)ccc3C2)c(C)c1 (stereo not shown) [(101), 2-((1-(4-Methoxy-2,6-dimethylphenylsulfonyl)piperidin-2-yl)methoxy)-1-(6-(2-(pyridin-3-yl)ethyl)-3,4-dihydropyrrolo[1,2-a]pyrazin-2(1H)-yl)ethanone] | 100 | 98
11 | COc1cc(C)c(S(=O)(=O)N2CCCCC2COCC(=O)N2CCn3cccc3C2c2cccs2)c(C)c1 (stereo not shown) [(29), 2-((1-(4-methoxy-2,6-dimethylphenylsulfonyl)piperidin-2-yl)methoxy)-1-(1-(thiophen-2-yl)-3,4-dihydropyrrolo[1,2-a]pyrazin-2(1H)-yl)ethanone] | 102 | 98
